Like-named read-outs stand apart in the source and are kept apart here.
Experiments:
Assay type in all cases: in vivo
[1] = test system: wheat (Triticum aestivum); test: Test A pre-/postemergence greenhouse herbicide test, visual injury rating 0-100; settings: for plant injury at 500 g/ha: 500 g ai/ha
Method in brief: (§1)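 Each species was treated both before emergence, via soil spray onto a loam–sand blend, and after emergence at the one- to two-leaf stage. Plants stayed in the greenhouse around 10 days before visual injury assessment.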

[2] = test system: morningglory (Ipomoea spp.); test: as above; settings: for pest or weed control at 500 g/ha: 500 g ai/ha
Method in brief: as §1

[3] = test system: velvetleaf (Abutilon theophrasti); test: as above; settings: Abutilon theophrasti, 240 h, read-out: Plant response rating (0 to 100 scale), Velvetleaf; for pest or weed control at 500 g/ha: 500 g ai/ha
Method in brief: as §1

corn (Zea mays) = test: as above; settings: for plant injury at 500 g/ha: 500 g ai/ha
Method in brief: as §1

[4] = test system: pigweed (Amaranthus retroflexus); test: as above; settings: for pest or weed control at 500 g/ha: 500 g ai/ha
Method in brief: as §1

[5] = test system: large (Lg) crabgrass (Digitaria sanguinalis); test: as above; settings: for pest or weed control at 500 g/ha: 500 g ai/ha
Method in brief: as §1

[6] = test system: barnyardgrass (Echinochloa crus-galli); test: as above; settings: for pest or weed control at 500 g/ha: 500 g ai/ha
Method in brief: as §1

[7] = test system: giant foxtail (Setaria faberii); test: as above; settings: for pest or weed control at 500 g/ha: 500 g ai/ha
Method in brief: as §1

[8] = test system: johnsongrass (Sorghum halepense); test: Test C pre-/postemergence greenhouse test, plant response rating 0-100; settings: Sorghum halepense; for pest or weed control at 62 g/ha: 62 g ai/ha; for pest or weed control at 125 g/ha: 125 g ai/ha; for pest or weed control at 250 g/ha: 250 g ai/ha; for pest or weed control at 500 g/ha: 500 g ai/ha
Method in brief: (§2)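 After treatment, pots stay in the greenhouse 13–15 days before each species is compared with untreated controls and given a 0–100 visual score. Preemergence seeds are in loam blended with sand; postemergence plants, 1–4 leaves, are in peat-based medium.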

[9] = test system: winter wheat (Triticum aestivum); test: as above; settings: Triticum aestivum; for plant injury at 62 g/ha: 62 g ai/ha; for plant injury at 125 g/ha: 125 g ai/ha; for plant injury at 250 g/ha: 250 g ai/ha; for plant injury at 500 g/ha: 500 g ai/ha
Method in brief: as §2

[10] = test system: giant foxtail (Setaria faberii); test: as above; settings: Setaria faberi; for pest or weed control at 62 g/ha: 62 g ai/ha; for pest or weed control at 125 g/ha: 125 g ai/ha; for pest or weed control at 250 g/ha: 250 g ai/ha; for pest or weed control at 500 g/ha: 500 g ai/ha
Method in brief: as §2

wild oat (Avena fatua) = test: Test C postemergence greenhouse test, plant response rating 0-100; settings: Avena fatua, post-emergence
Method in brief: (§3)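 Each weed species was grown in potting medium and sprayed after emergence, when 2–18 cm tall. Ratings, made by eye relative to control pots, were recorded 13–15 days later using a scale where 0 is no effect.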

kochia (Kochia scoparia) = test: as above; settings: Bassia scoparia, post-emergence
Method in brief: as §3

[11] = test system: chickweed (common chickweed, Stellaria media); test: as above; settings: Stellaria media, post-emergence
Method in brief: as §3

[12] = post-emergence, Postemergence, read-out: Plant response rating (0 to 100), Johnsongrass
[13] = post-emergence, Postemergence, scale 0 to 100
[14] = pre-emergence, Preemergence, read-out: Plant response rating, Johnsongrass
[15] = post-emergence, Postemergence, read-out: Plant response rating (0 to 100), Wheat
[16] = pre-emergence, Preemergence, read-out: Plant response rating, Wheat
[17] = post-emergence, Postemergence, read-out: Plant response rating (0 to 100), Foxtail, Giant
[18] = pre-emergence, Preemergence, read-out: Plant response rating, Foxtail, Giant

Question: How did the “Wheat plant response rating (0 = no effect, 100 = complete control)” value ([1]; Preemergence, 125 g ai/ha) turn out when `COC(OC)(c1ccccc1)c1c[nH]nc1-c1cc(Cl)cc(Cl)c1` [Compound 13, 3-(3,5-dichlorophenyl)-4-(dimethoxyphenylmethyl)-1H-pyrazole] was run?
Answer: 0

Question: What about the plant injury at 125 g/ha ([1]; Triticum aestivum, post-emergence, 240 h, Postemergence, 125 g ai/ha, read-out: Plant response rating (0 to 100 scale), Wheat) of the same compound?
Answer: 0%

Question: And the plant injury at 500 g/ha ([1]; Triticum aestivum, post-emergence, 240 h, Postemergence, read-out: Plant response rating (0 to 100 scale), Wheat)?
Answer: 0%

Question: What about the plant injury at 500 g/ha ([1]; Triticum aestivum, pre-emergence, 240 h, Preemergence, read-out: Plant response rating (0 to 100 scale), Wheat) of the same compound?
Answer: 0%

Question: What about the pest or weed control at 125 g/ha ([2]; Ipomoea, post-emergence, 240 h, Postemergence, 125 g ai/ha, read-out: Plant response rating (0 to 100 scale), Morningglory) of the same compound?
Answer: 0%

Question: What about the pest or weed control at 500 g/ha ([2]; Ipomoea, post-emergence, 240 h, Postemergence, read-out: Plant response rating (0 to 100 scale), Morningglory) of the same compound?
Answer: 0%

Question: And the pest or weed control at 500 g/ha ([2]; Ipomoea, pre-emergence, 240 h, Preemergence, read-out: Plant response rating (0 to 100 scale), Morningglory)?
Answer: 0%

Question: What about the “Morningglory plant response rating (0 = no effect, 100 = complete control)” value ([2]; Preemergence, 125 g ai/ha) of the same compound?
Answer: 0

Question: What about the pest or weed control at 125 g/ha ([3]; post-emergence, Postemergence, 125 g ai/ha) of the same compound?
Answer: 80%

Question: And the pest or weed control at 500 g/ha ([3]; post-emergence, Postemergence)?
Answer: 90%

Question: And the pest or weed control at 500 g/ha ([3]; pre-emergence, Preemergence)?
Answer: 70%

Question: What about the “Corn plant response rating (0 = no effect, 100 = complete control)” value (corn (Zea mays); Preemergence, 125 g ai/ha) of the same compound?
Answer: 0

Question: And the plant injury at 125 g/ha (corn (Zea mays); Zea mays, post-emergence, 240 h, Postemergence, 125 g ai/ha, read-out: Plant response rating (0 to 100 scale), Corn)?
Answer: 0%

Question: And the plant injury at 500 g/ha (corn (Zea mays); Zea mays, post-emergence, 240 h, Postemergence, read-out: Plant response rating (0 to 100 scale), Corn)?
Answer: 0%

Question: What about the plant injury at 500 g/ha (corn (Zea mays); Zea mays, pre-emergence, 240 h, Preemergence, read-out: Plant response rating (0 to 100 scale), Corn) of the same compound?
Answer: 0%

Question: And the pest or weed control at 125 g/ha ([4]; Amaranthus retroflexus, post-emergence, 240 h, Postemergence, 125 g ai/ha, read-out: Plant response rating (0 to 100 scale), Pigweed)?
Answer: 90%

Question: What about the pest or weed control at 500 g/ha ([4]; Amaranthus retroflexus, post-emergence, 240 h, Postemergence, read-out: Plant response rating (0 to 100 scale), Pigweed) of the same compound?
Answer: 100%

Question: And the pest or weed control at 500 g/ha ([4]; Amaranthus retroflexus, pre-emergence, 240 h, Preemergence, read-out: Plant response rating (0 to 100 scale), Pigweed)?
Answer: 100%

Question: And the “Pigweed plant response rating (0 = no effect, 100 = complete control)” value ([4]; Preemergence, 125 g ai/ha)?
Answer: 70

Question: And the pest or weed control at 125 g/ha ([5]; Digitaria sanguinalis, post-emergence, 240 h, Postemergence, 125 g ai/ha, read-out: Plant response rating (0 to 100 scale), Crabgrass, Large)?
Answer: 0%

Question: What about the pest or weed control at 500 g/ha ([5]; Digitaria sanguinalis, post-emergence, 240 h, Postemergence, read-out: Plant response rating (0 to 100 scale), Crabgrass, Large) of the same compound?
Answer: 0%

Question: And the pest or weed control at 500 g/ha ([5]; Digitaria sanguinalis, pre-emergence, 240 h, Preemergence, read-out: Plant response rating (0 to 100 scale), Crabgrass, Large)?
Answer: 0%

Question: What about the “Crabgrass, Large plant response rating (0 = no effect, 100 = complete control)” value ([5]; Preemergence, 125 g ai/ha) of the same compound?
Answer: 0

Question: What about the pest or weed control at 125 g/ha ([6]; Echinochloa crus-galli, post-emergence, 240 h, Postemergence, 125 g ai/ha, read-out: Plant response rating (0 to 100 scale), Barnyardgrass) of the same compound?
Answer: 0%

Question: And the pest or weed control at 500 g/ha ([6]; Echinochloa crus-galli, post-emergence, 240 h, Postemergence, read-out: Plant response rating (0 to 100 scale), Barnyardgrass)?
Answer: 0%

Question: What about the pest or weed control at 500 g/ha ([6]; Echinochloa crus-galli, pre-emergence, 240 h, Preemergence, read-out: Plant response rating (0 to 100 scale), Barnyardgrass) of the same compound?
Answer: 0%

Question: What about the “Barnyardgrass plant response rating (0 = no effect, 100 = complete control)” value ([6]; Preemergence, 125 g ai/ha) of the same compound?
Answer: 0

Question: And the “Foxtail, Giant plant response rating (0 = no effect, 100 = complete control)” value ([7]; Preemergence, 125 g ai/ha)?
Answer: 0

Question: And the pest or weed control at 125 g/ha ([7]; Setaria faberi, post-emergence, 240 h, Postemergence, 125 g ai/ha, read-out: Plant response rating (0 to 100 scale), Foxtail, Giant)?
Answer: 0%

Question: What about the pest or weed control at 500 g/ha ([7]; Setaria faberi, post-emergence, 240 h, Postemergence, read-out: Plant response rating (0 to 100 scale), Foxtail, Giant) of the same compound?
Answer: 0%

Question: What about the pest or weed control at 500 g/ha ([7]; Setaria faberi, pre-emergence, 240 h, Preemergence, read-out: Plant response rating (0 to 100 scale), Foxtail, Giant) of the same compound?
Answer: 0%

Question: What about the pest or weed control at 62 g/ha [8, 12] of the same compound?
Answer: 0%

Question: And the pest or weed control at 125 g/ha [8, 12]?
Answer: 0%

Question: And the pest or weed control at 250 g/ha [8, 13]?
Answer: 0%

Question: And the pest or weed control at 500 g/ha [8, 13]?
Answer: 0%

Question: And the pest or weed control at 62 g/ha [8, 14]?
Answer: 0%

Question: And the pest or weed control at 125 g/ha [8, 14]?
Answer: 0%

Question: And the pest or weed control at 250 g/ha ([8]; pre-emergence, Preemergence)?
Answer: 0%

Question: And the pest or weed control at 500 g/ha ([8]; pre-emergence, Preemergence)?
Answer: 0%

Question: And the plant injury at 62 g/ha [9, 15]?
Answer: 0%

Question: What about the plant injury at 125 g/ha [9, 15] of the same compound?
Answer: 0%

Question: What about the plant injury at 250 g/ha [9, 13] of the same compound?
Answer: 0%

Question: What about the plant injury at 500 g/ha [9, 13] of the same compound?
Answer: 0%

Question: What about the plant injury at 62 g/ha [9, 16] of the same compound?
Answer: 0%

Question: And the plant injury at 125 g/ha [9, 16]?
Answer: 0%

Question: What about the plant injury at 250 g/ha ([9]; pre-emergence, Preemergence) of the same compound?
Answer: 0%

Question: And the plant injury at 500 g/ha ([9]; pre-emergence, Preemergence)?
Answer: 0%

Question: And the pest or weed control at 62 g/ha [10, 17]?
Answer: 0%

Question: What about the pest or weed control at 125 g/ha [10, 17] of the same compound?
Answer: 0%

Question: What about the pest or weed control at 250 g/ha [10, 13] of the same compound?
Answer: 0%

Question: What about the pest or weed control at 500 g/ha [10, 13] of the same compound?
Answer: 0%

Question: What about the pest or weed control at 62 g/ha [10, 18] of the same compound?
Answer: 0%

Question: What about the pest or weed control at 125 g/ha [10, 18] of the same compound?
Answer: 0%

Question: And the pest or weed control at 250 g/ha ([10]; pre-emergence, Preemergence)?
Answer: 0%

Question: What about the pest or weed control at 500 g/ha ([10]; pre-emergence, Preemergence) of the same compound?
Answer: 0%

Question: And the pest or weed control at 62 g/ha (wild oat (Avena fatua); 62 g ai/ha)?
Answer: 0%

Question: What about the pest or weed control at 125 g/ha (wild oat (Avena fatua); 125 g ai/ha) of the same compound?
Answer: 0%

Question: And the pest or weed control at 250 g/ha (wild oat (Avena fatua); 250 g ai/ha, scale 0 to 100)?
Answer: 0%

Question: And the pest or weed control at 500 g/ha (wild oat (Avena fatua); 500 g ai/ha, scale 0 to 100)?
Answer: 5%

Question: And the pest or weed control at 62 g/ha (kochia (Kochia scoparia); 62 g ai/ha)?
Answer: 85%

Question: What about the pest or weed control at 125 g/ha (kochia (Kochia scoparia); 125 g ai/ha) of the same compound?
Answer: 80%

Question: And the pest or weed control at 250 g/ha (kochia (Kochia scoparia); 250 g ai/ha, scale 0 to 100)?
Answer: 85%

Question: What about the pest or weed control at 500 g/ha (kochia (Kochia scoparia); 500 g ai/ha, scale 0 to 100) of the same compound?
Answer: 90%

Question: And the pest or weed control at 62 g/ha ([11]; 62 g ai/ha)?
Answer: 100%

Question: And the pest or weed control at 125 g/ha ([11]; 125 g ai/ha)?
Answer: 85%

Question: What about the pest or weed control at 250 g/ha ([11]; 250 g ai/ha, scale 0 to 100) of the same compound?
Answer: 100%

Question: What about the pest or weed control at 500 g/ha ([11]; 500 g ai/ha, scale 0 to 100) of the same compound?
Answer: 100%
